Read-outs that look alike come from different tables or passages of the source.
Biological target: human α5β3γ2 receptors (α5-GABAA receptor) (Homo sapiens (Human), UniProt P18507+P31644)
Assay: 3H-flunitrazepam competition binding, human α5β3γ2 GABAA receptor
Conditions: HEK293 cell membranes, 1 nM 3H-flunitrazepam
Procedure: The affinity of the compound to each subtype of GABAA receptor was determined by competing for the binding of ^3H-flunitrazepam to HEK293 cells stably expressing human α1β3γ2, α2β3γ2, α3β3γ2, and α5β3γ2 receptors.
The cells were suspended in 50 mM Tris-HCl buffer (pH=7.4), homogenized 10 times on ice with a homogenizer for 20 seconds, and centrifuged at 1000 g for 10 minutes at 4° C. The supernatant was collected, and the above steps were repeated. The supernatant was centrifuged at 4° C. (33800 g; Thermo, rotor: A27-8×50) for 60 minutes, and the precipitate was resuspended in Tris buffer (50 mM Tris-HCl, 10 mM MgCl2, 0.5 mM EDTA, 10% glycerol). Protein was measured (BCA method, Pierce), and 1 mL aliquots were prepared and stored at −80° C.
The radioligand competition binding assay was performed in a 200 μL system (96-well plate) containing 100 μL of cell membrane. The concentration of ^3H-flunitrazepam was 1 nM and the concentration of the test compound was in the range of […]. Flumazenil was used as a control. 1 μL of 2 mM flumazenil (final concentration […]) was added to the low signal control well (Low control, LC), and 1 μL of DMSO was added to the high signal control well (High control, HC). The final concentration of target membrane protein was […]. All test compound sample storage solutions were 10 mM. The working concentration of the samples was to dilute all the samples to 0.2 mM with DMSO, followed by 4-fold serial gradient dilutions for a total of 8 concentration gradients. The 96-well plate was sealed with a sealing film, and then incubated on a shaker at room temperature for 1 hour. At the same time, the GF/C filter plate was soaked in soaking buffer (0.3% PEI, stored at 4° C.) for at least 0.5 hours. After the binding incubation was completed, the cells were collected onto a GF/C filter plate using a cell harvester. The plate was washed four times with washing buffer (50 mM Tris-HCl, pH 7.4, stored at 4° C.). After drying in a 50° C. oven for 1 hour, the bottom of the dried GF/C filter plate was sealed. The residual radioactivity on the filter membrane was detected using liquid scintillation counting. 50 μL of scintillation fluid was added to each well, and the plate was sealed. The readings were taken using a Microbeta2. The inhibitory activity of the test sample on the binding of ^3H-flunitrazepam to GABAA receptor membrane proteins was calculated, and the IC50 of each test sample was calculated by dose-effect curve fitting (GraphPad Prism 5 software), and the Ki of the sample was calculated from the IC50, thus evaluating the binding ability of the sample to the various subtypes of GABAA receptors.

SMILES | Ki (read-out: α5-GABAAR Ki) [nM] | Ki (α5-GABAAR Ki) [nM]
Cc1nnn(-c2ccc(C(F)F)cc2)c1COc1ccc(N2CCn3cnnc3C2)nn1 [Example 84, 7-(6-((1-(4-(Difluoromethyl)phenyl)-4-methyl-1H-1,2,3-triazol-5-yl)methoxy)pyridazin-3-yl)-5,6,7,8-tetrahydro-[1,2,4]triazolo[4,3-a]pyrazine] | 0.6 | 
Cc1nnn(-c2ccc(C(F)F)cc2)c1COc1ccc(N2CCCC3(COC3)C2)nn1 [Example 85, 6-(6-((1-(4-(Difluoromethyl)phenyl)-4-methyl-1H-1,2,3-triazol-5-yl)methoxy)pyridazin-3-yl)-2-oxa-6-azaspiro[3.5]nonane] | 2.24 | 
CC(=O)NC1CCN(c2ccc(OCc3c(C)nnn3-c3ccc(C(F)F)cc3)nn2)C1 (stereo not shown) [Example 88, N-(1-(6-((1-(4-(Difluoromethyl)phenyl)-4-methyl-1H-1,2,3-triazol-5-yl)methoxy)pyridazin-3-yl)pyrrolidin-3-yl)acetamide] | 1.78 | 
Cc1nnn(-c2ccc(C(F)F)cc2)c1COc1ccc(N2CC(=O)N3CCN(CC(F)(F)F)CC3C2)nn1 (stereo not shown) [Example 91, 2-(6-((1-(4-(Difluoromethyl)phenyl)-4-methyl-1H-1,2,3-triazol-5-yl)methoxy)pyridazin-3-yl)-8-(2,2,2-trifluoroethyl)octahydro-4H-pyrazino[1,2-a]pyrazin-4-one] | 1.13 | 
Cc1nnn(-c2ccc(C(F)F)cc2)c1COc1ccc(N2CCN(Cc3ncccn3)C(=O)C2)nn1 [Example 93, 4-(6-((1-(4-(Difluoromethyl)phenyl)-4-methyl-1H-1,2,3-triazol-5-yl)methoxy)pyridazin-3-yl)-1-(pyrimidin-2-ylmethyl)piperazin-2-one] | 3.14 | 
Cc1nnn(-c2ccc(F)cc2)c1COc1ccc(N2CCN(CC(F)(F)F)C(=O)C2)nn1 [Example 94, 4-(6-((1-(4-Fluorophenyl)-4-methyl-1H-1,2,3-triazol-5-yl)methoxy)pyridazin-3-yl)-1-(2,2,2-trifluoroethyl)piperazin-2-one] | 44.3 | 
Cc1nnn(-c2ccc(C(F)F)cc2)c1COc1ccc(N2CC(C(=O)Nc3ccnn3C)C2)nn1 [Example 102, 1-(6-((1-(4-(Difluoromethyl)phenyl)-4-methyl-1H-1,2,3-triazol-5-yl)methoxy)pyridazin-3-yl)-N-(1-methyl-1H-pyrazol-5-yl)azetidine-3-carboxamide] | 2.14 | 
Cc1nnn(-c2ccc(C(F)F)cc2)c1COc1ccc(N2CCOC3(CCS(=O)(=O)C3)C2)nn1 (stereo not shown) [Example 105, 9-(6-((1-(4-(Difluoromethyl)phenyl)-4-methyl-1H-1,2,3-triazol-5-yl)methoxy)pyridazin-3-yl)-6-oxa-2-thia-9-azaspiro[4.5]decane 2,2-dioxide] | 1.24 | 
Cc1nnn(-c2ccc(C(F)F)cc2)c1COc1ccc(N2CCCN(S(C)(=O)=O)CC2)nn1 [Example 106, 1-(6-((1-(4-(Difluoromethyl)phenyl)-4-methyl-1H-1,2,3-triazol-5-yl)methoxy)pyridazin-3-yl)-4-(methylsulfonyl)-1,4-diazepane] | 7.39 | 
Cc1nnn(-c2ccc(C(F)F)cc2)c1COc1ccc(N2CCN(CCN3CCC(F)(F)CC3)C(=O)C2)nn1 [Example 109, 4-(6-((1-(4-(Difluoromethyl)phenyl)-4-methyl-1H-1,2,3-triazol-5-yl)methoxy)pyridazin-3-yl)-1-(2-(4,4-difluoropiperidin-1-yl)ethyl)piperazin-2-one] | 1.53 | 
Cc1nnn(-c2ccc(C(F)F)cc2)c1COc1ccc(N2CCN(c3cnn(C)c3)C(=O)C2)nn1 [Example 111, 4-(6-((1-(4-(Difluoromethyl)phenyl)-4-methyl-1H-1,2,3-triazol-5-yl)methoxy)pyridazin-3-yl)-1-(1-methyl-1H-pyrazol-4-yl)piperazin-2-one] | 0.93 | 
Cc1nnn(-c2ccc(C(F)F)cc2)c1COc1ccc(N2CCN(c3ccn(C)n3)C(=O)C2)nn1 [Example 112, 4-(6-((1-(4-(Difluoromethyl)phenyl)-4-methyl-1H-1,2,3-triazol-5-yl)methoxy)pyridazin-3-yl)-1-(1-methyl-1H-pyrazol-3-yl)piperazin-2-one] | 0.81 | 
Cc1nnn(-c2ccc(C(F)F)cc2)c1COc1ccc(N2CCN(c3cnn(C(F)F)c3)C(=O)C2)nn1 [Example 113, 1-(1-(Difluoromethyl)-1H-pyrazol-4-yl)-4-(6-((1-(4-(difluoromethyl)phenyl)-4-methyl-1H-1,2,3-triazol-5-yl)methoxy)pyridazin-3-yl)piperazin-2-one] | 1.17 | 
CCNC(=O)C12CC(CN1c1ccc(OCc3c(C)nnn3-c3ccc(C(F)F)cc3)nn1)C2 [Example 115, 2-(6-((1-(4-(Difluoromethyl)phenyl)-4-methyl-1H-1,2,3-triazol-5-yl)methoxy)pyridazin-3-yl)-N-ethyl-2-azabicyclo[2.1.1]hexane-1-carboxamide] | 1.25 | 
Cc1nnn(-c2ccc(C(F)F)cc2)c1COc1ccc(N2CCN3C(=O)NC(=O)[C@@H]3C2)nn1 [Example 118, (S)-7-(6-((1-(4-(Difluoromethyl)phenyl)-4-methyl-1H-1,2,3-triazol-5-yl)methoxy)pyridazin-3-yl)tetrahydroimidazo[1,5-a]pyrazine-1,3(2H,5H)-dione] | 1.66 | 
CCNC(=O)C12CC(CN(c3ccc(OCc4c(C)nnn4-c4ccc(C(F)F)cc4)nn3)C1)C2 [Example 121, 3-(6-((1-(4-(Difluoromethyl)phenyl)-4-methyl-1H-1,2,3-triazol-5-yl)methoxy)pyridazin-3-yl)-N-ethyl-3-azabicyclo[3.1.1]heptane-1-carboxamide] |  | 1.73
Cc1nnn(-c2ccc(F)cc2)c1COc1ccc(N2CCN3CCOC[C@@H]3C2)nn1 [Example 126, (S)-8-(6-((1-(4-Fluorophenyl)-4-methyl-1H-1,2,3-triazol-5-yl)methoxy)pyridazin-3-yl)octahydropyrazino[2,1-c][1,4]oxazine] | 40.1 | 

Now from value to molecule, other results behind:

Ki (read-out: α5-GABAAR Ki) [nM] | SMILES | Ki (α5-GABAAR Ki) [nM]
32.5 | Cc1nnn(-c2ccc(CO)cc2)c1COc1ccc(N2CCNC(=O)C2)nn1 [Example 79, 4-(6-((1-(4-(hydroxymethyl)phenyl)-4-methyl-1H-1,2,3-triazol-5-yl)methoxy)pyridazin-3-yl)piperazin-2-one] | 
0.56 | Cc1cc(N2CCNC(=O)C2)nnc1OCc1c(C)nnn1-c1ccc(C(F)F)cc1 [Example 81, 4-(6-((1-(4-(Difluoromethyl)phenyl)-4-methyl-1H-1,2,3-triazol-5-yl)methoxy)-5-methylpyridazin-3-yl)piperazin-2-one] | 
0.63 | Cc1cc(OCc2c(C)nnn2-c2ccc(C(F)F)cc2)nnc1N1CCNC(=O)C1 [Example 82, 4-(6-((1-(4-(Difluoromethyl)phenyl)-4-methyl-1H-1,2,3-triazol-5-yl)methoxy)-4-methylpyridazin-3-yl)piperazin-2-one] | 
2.6 | O=C1CN(c2ccc(OCc3c(C4CC4)nnn3-c3ccc(C(F)F)cc3)nn2)CCN1 [Example 83, 4-(6-((4-Cyclopropyl-1-(4-(difluoromethyl)phenyl)-1H-1,2,3-triazol-5-yl)methoxy)pyridazin-3-yl)piperazin-2-one] | 
8.31 | Cc1nnn(-c2ccc(C(F)F)cc2)c1COc1ccc(N2CC3(CCNC3=O)C2)nn1 [Example 86, 2-(6-((1-(4-(Difluoromethyl)phenyl)-4-methyl-1H-1,2,3-triazol-5-yl)methoxy)pyridazin-3-yl)-2,6-diazaspiro[3.4]octan-5-one] | 
3.46 | Cc1nnn(-c2ccc(C(F)F)cc2)c1COc1ccc(N2CC3(CNC(=O)C3)C2)nn1 [Example 87, 2-(6-((1-(4-(Difluoromethyl)phenyl)-4-methyl-1H-1,2,3-triazol-5-yl)methoxy)pyridazin-3-yl)-2,6-diazaspiro[3.4]octan-7-one] | 
4.87 | Cc1nnn(-c2ccc(C(F)F)cc2)c1COc1ccc(N2CCN3CC(=O)NC(=O)[C@@H]3C2)nn1 [Example 117, (S)-8-(6-((1-(4-(Difluoromethyl)phenyl)-4-methyl-1H-1,2,3-triazol-5-yl)methoxy)pyridazin-3-yl)hexahydro-1H-pyrazino[1,2-a]pyrazin-1,3-(2H)-dione] | 
27.2 | Cc1nnn(-c2ccc(C(F)F)cc2)c1COc1ccc(N2CCN3CCCNC(=O)[C@@H]3C2)nn1 [Example 120, (S)-2-(6-((1-(4-(Difluoromethyl)phenyl)-4-methyl-1H-1,2,3-triazol-5-yl)methoxy)pyridazin-3-yl)octahydropyrazino[1,2-a][1,4]diaza-10(2H)-one] | 
